{"source": "patent US12214015B2", "about": "“Use of c-type natriuretic peptide variants to treat osteoarthritis” (priority 2015, dated 2025)", "key": {"NPR-C": {"molecular_target": "NPR-C (Homo sapiens, UniProt P17342)", "sequence (P17342 27-541, species assumed)": "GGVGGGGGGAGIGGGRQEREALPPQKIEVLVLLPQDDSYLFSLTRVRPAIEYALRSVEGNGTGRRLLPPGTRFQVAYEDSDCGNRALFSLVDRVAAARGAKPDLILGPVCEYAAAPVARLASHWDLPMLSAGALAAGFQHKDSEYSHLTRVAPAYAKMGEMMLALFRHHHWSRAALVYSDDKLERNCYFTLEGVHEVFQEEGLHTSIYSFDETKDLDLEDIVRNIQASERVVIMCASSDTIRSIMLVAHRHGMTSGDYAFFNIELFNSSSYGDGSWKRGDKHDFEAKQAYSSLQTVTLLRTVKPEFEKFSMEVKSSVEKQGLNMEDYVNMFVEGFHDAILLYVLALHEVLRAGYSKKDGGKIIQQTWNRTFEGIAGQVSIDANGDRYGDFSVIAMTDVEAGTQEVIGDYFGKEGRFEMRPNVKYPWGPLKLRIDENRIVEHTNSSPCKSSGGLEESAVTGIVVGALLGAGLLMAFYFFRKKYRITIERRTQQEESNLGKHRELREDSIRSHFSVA", "conditions": "read-out: affinity to NPR-C; cited from earlier work"}, "NEP": {"molecular_target": "NEP (Homo sapiens, UniProt P08473)", "sequence (P08473 whole entry)": "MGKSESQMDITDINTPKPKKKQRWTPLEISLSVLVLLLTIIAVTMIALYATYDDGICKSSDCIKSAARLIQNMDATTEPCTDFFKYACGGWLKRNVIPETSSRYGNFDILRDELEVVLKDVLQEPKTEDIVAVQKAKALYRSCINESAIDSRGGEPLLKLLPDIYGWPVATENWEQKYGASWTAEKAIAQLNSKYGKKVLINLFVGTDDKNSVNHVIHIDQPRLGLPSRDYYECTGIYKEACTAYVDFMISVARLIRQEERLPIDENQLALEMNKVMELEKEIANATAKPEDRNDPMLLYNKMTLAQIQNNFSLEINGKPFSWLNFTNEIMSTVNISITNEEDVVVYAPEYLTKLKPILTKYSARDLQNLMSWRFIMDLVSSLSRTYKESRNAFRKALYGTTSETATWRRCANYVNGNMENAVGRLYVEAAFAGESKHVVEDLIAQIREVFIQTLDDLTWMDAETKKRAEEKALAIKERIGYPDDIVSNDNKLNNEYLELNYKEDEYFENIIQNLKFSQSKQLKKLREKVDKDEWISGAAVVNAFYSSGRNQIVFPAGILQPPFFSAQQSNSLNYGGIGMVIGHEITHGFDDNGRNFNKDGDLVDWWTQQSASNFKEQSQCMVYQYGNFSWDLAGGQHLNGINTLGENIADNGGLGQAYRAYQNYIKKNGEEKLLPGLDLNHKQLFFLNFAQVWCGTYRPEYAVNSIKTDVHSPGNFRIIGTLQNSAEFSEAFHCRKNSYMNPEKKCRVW", "conditions": "NEP digestion for 2.5 minutes in vitro; Cys6-Phe7 and Gly8-Leu9 slightly most labile"}, "[1]": {"conditions": "clearance by NEP and NPR-C; cited from earlier work"}, "NPR-B [2]": {"molecular_target": "T1, NPR-B (Homo sapiens, UniProt P20594)", "T1 sequence (P20594 23-1047)": "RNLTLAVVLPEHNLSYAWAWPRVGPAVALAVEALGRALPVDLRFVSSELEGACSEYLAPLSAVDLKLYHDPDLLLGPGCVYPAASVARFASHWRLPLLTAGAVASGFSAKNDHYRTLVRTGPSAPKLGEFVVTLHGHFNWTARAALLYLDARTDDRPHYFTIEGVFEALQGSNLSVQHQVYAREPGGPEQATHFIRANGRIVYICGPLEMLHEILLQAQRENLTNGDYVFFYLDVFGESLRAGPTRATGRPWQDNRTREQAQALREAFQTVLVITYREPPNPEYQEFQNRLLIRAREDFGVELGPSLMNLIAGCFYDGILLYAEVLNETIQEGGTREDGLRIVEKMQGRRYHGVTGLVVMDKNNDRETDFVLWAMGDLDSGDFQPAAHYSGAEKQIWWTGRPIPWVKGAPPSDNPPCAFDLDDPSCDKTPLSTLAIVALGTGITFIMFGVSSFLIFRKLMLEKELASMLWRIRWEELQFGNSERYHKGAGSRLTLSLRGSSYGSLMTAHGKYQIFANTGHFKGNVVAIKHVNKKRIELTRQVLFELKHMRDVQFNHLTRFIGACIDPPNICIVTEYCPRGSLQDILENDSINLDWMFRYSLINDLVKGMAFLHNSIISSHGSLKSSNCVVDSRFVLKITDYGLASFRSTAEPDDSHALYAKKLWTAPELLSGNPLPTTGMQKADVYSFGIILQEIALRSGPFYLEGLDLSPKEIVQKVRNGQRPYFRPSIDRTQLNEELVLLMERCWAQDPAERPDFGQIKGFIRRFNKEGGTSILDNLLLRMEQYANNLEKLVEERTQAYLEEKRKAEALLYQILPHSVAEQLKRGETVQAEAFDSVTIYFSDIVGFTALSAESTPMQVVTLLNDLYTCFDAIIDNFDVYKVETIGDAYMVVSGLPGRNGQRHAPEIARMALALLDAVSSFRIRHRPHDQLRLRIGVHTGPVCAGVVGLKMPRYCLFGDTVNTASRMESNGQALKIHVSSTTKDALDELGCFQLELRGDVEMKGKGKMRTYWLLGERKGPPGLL", "conditions": "read-out: affinity to NPR-B; cited from earlier work"}, "NPR-B [3]": {"molecular_target": "T1, NPR-B", "conditions": "cited from earlier work"}, "[4]": {"test_system": "medial meniscal tear-induced osteoarthritis", "test": "Rat medial meniscal tear osteoarthritis model, knee histopathology (Example 1, IA dosing from Day 7)", "format": "in vivo", "conditions": "for cartilage degeneration in the tibia: 3x/week for 3 weeks from Day 7, vs control rats", "procedure": "A unilateral medial meniscal tear in 275-300 gram rats will result in rapidly progressive cartilage degeneration—characterized by chondrocyte and proteoglycan loss, fibrillation, osteophyte formation, and chondrocyte cloning. This model is performed by transection of the medial collateral ligament just below its attachment to the meniscus so that when the joint space opens, the meniscus is reflected toward the femur. The meniscus is cut at its narrowest point (away from the ossicles) taking care not to damage the tibial surface and making sure that the resulting transection produces separate, freely movable anterior and posterior meniscus halves.\nProgressive cartilage degenerative changes occur and by 3-6 weeks post-surgery, tibial cartilage degeneration may be focally severe on the outer ⅓ of the tibia with degenerative changes of lesser severity in the middle and inner ⅓. Osteophytes are ultimately quite large (medial tibia) and progressively increase in size. The model is progressive and results in total cartilage loss (to eburnated bone) in […] in virtually all rats, with lesions that are reasonably consistent. […] Due to the rapid progression of cartilage degeneration, protective effects are not always apparent in the outer ⅓ of the tibial cartilage, although zonal analysis may reveal effects of treatment in the middle and inner ⅓. Substantial subchondral and epiphyseal bone changes occur in the medial tibia subjacent to the areas of greatest lesion severity. These range in magnitude and type from increased basophilia of the calcified cartilage layer with small fractures into subchondral bone to overt collapse of articular cartilage into areas of bone resorption in the epiphysis with surrounding sclerosis of bone. Therefore, this model offers the opportunity to evaluate not only chondroprotective effects of agents but also bone preserving activities. The model is of relatively short duration and animals are very consistent in their response to the surgery.\n(§1) This rat model was used to determine the effect of CNP variants on slowing or repairing cartilage damage in osteoarthritis, where the CNP is delivered in response to joint injury or trauma. In this model a tear was introduced into the meniscus to provoke joint injury which results in cartilage degeneration and osteoarthritis (Janusz et al., Osteoarthritis Cartilage, 10:785-791, 2002). Male Lewis rats received a unilateral medial meniscectomy on Day 0; administration of control vehicle or the CNP variant Gly-CNP-37 began on Day 7; and the animals were euthanized on Day 29 for histopathological analysis of the affected joints. […] Therapeutic efficacy was evaluated by gait analysis and histopathological examination of chondrocyte death/cartilage degeneration in the knee.\nIn particular, surgery animals were anesthetized with isoflurane and the right knee and lower leg area were prepared for surgery. For the meniscal tear, a skin incision was made over the medial aspect of the knee and the medial collateral ligament was transected after being exposed by blunt dissection. The medial meniscus was cut through the full thickness to simulate a complete tear and the wound closed. Ninety minutes (90 min) post-surgery, animals were treated with a dose of Acetaminophen (100 mg/kg, PO) in 1% CMC (2 mL/kg, 50 mg/mL). A follow-on dose was given 24 hours post-surgery (as needed).\nFor histopathological analysis the operated joints were harvested from the euthanized rats. Following 4-6 days in 5% formic acid decalcifier, the operated joints are cut into two approximately equal halves in the frontal plane and embedded in paraffin. Sections were cut from each operated right knee at approximately 160 μm steps and stained with toluidine blue. […]"}, "[5]": {"test_system": "medial meniscal tear-induced osteoarthritis", "test": "Rat medial meniscal tear osteoarthritis model, knee histopathology (Example 2, IA or SC)", "format": "in vivo"}, "[6]": {"test_system": "medial meniscal tear-induced osteoarthritis", "test": "Gait analysis in rat meniscal tear osteoarthritis model (Example 1)", "format": "in vivo", "description": "as §1\nGait analysis was performed by applying ink to the ventral surface of the foot and documenting weight bearing during movement (footprints) across paper. Rear feet of rats were placed in ink and then rats were placed on paper and allowed to walk the full length. Gait was scored visually using the criteria in Table 5 (descriptions refer to diseased/affected leg)."}}, "note": "Where no end group is shown, it is not given here."}
{"compound": "CC[C@H](C)[C@@H]1NC(=O)[C@H](CCCNC(=N)N)NC(=O)[C@H](CC(=O)O)NC(=O)[C@H](CC(C)C)NC(=O)[C@H](CCCCN)NC(=O)[C@H](CC(C)C)NC(=O)CNC(=O)[C@H](Cc2ccccc2)NC(=O)[C@@H](NC(=O)CNC(=O)[C@H](CCCCN)NC(=O)[C@H](CO)NC(=O)[C@H](CC(C)C)NC(=O)CN)CSSC[C@@H](C(=O)O)NC(=O)CNC(=O)[C@H](CC(C)C)NC(=O)CNC(=O)[C@H](CO)NC(=O)[C@H](CCSC)NC(=O)[C@H](CO)NC(=O)CNC1=O", "note": "[CNP-22]", "values": [{"measurement": "Kd", "setting": "NPR-C", "value": "0.011 to 0.14", "unit": "nM"}, {"measurement": "hydrolysis of NEP cleavage sites", "setting": "NEP", "value": "all possible sites were unexpectedly hydrolyzed"}, {"measurement": "half-life", "setting": "[1]", "value": "~2.6", "unit": "min"}, {"measurement": "Kd", "setting": "NPR-B [2]", "value": "0.007 to 0.03", "unit": "nM"}]}
{"compound": "G19R mutation in CNP22: CNP22 with a G19R substitution (GLSKGCFGLKLDRIGSMSRLGC; ends and bridges not checked; cysteine pairing not given here; UniProt P23582 105-126, looked up, variant G19R)", "values": [{"measurement": "NPR-B signaling activity", "setting": "NPR-B [3]", "value": "does not result in a significant loss"}]}
{"compound": "GQEHPNARKYKGANKKGLSKGCFGLKLDRIGSMSGLGC (ends and bridges not checked; cysteine pairing not given here) [Gly-CNP-37]", "values": [{"measurement": "medial growth plate thickness", "setting": "[4]; 35.5 μg IA", "value": "a reduction in medial thickness, but not a significant reduction"}, {"measurement": "Total Joint Score without Femur", "setting": "[4]; 35.5 μg/dose IA", "value": "improved Total Joint Score without Femur, albeit to a lesser extent as compared to the higher dose"}, {"measurement": "damage to the calcified cartilage and subchondral bone", "setting": "[4]; 35.5 μg/dose IA", "value": "reduced damage to the calcified cartilage and subchondral bone, but to a lesser extent than the higher dose"}, {"measurement": "cartilage degeneration in the tibia", "setting": "[4]; 35.5 μg/dose IA", "value": "significant reduction"}, {"measurement": "medial growth plate thickness", "setting": "[4]; 110 μg IA", "value": "significantly reduced"}, {"measurement": "Total Joint Score without Femur", "setting": "[4]; 110 μg/dose IA", "value": "significantly reduced"}, {"measurement": "cartilage degeneration in the tibia", "setting": "[4]; 110 μg/dose IA", "value": "significant reduction"}, {"measurement": "reduction of tibial osteophyte measurement", "setting": "[4]; 110 μg/dose IA, p<0.05", "value": "approximately 24%"}, {"measurement": "reduction of tibial osteophyte score", "setting": "[4]; 110 μg/dose IA, p<0.05", "value": "approximately 34%"}, {"measurement": "damage to the calcified cartilage and subchondral bone, score", "setting": "[4]; 110 μg/dose IA, vehicle approximately 2.4", "value": "~1.3"}, {"measurement": "improvement in substantial tibial cartilage degeneration (width)", "setting": "[4]; Gly-CNP-37 treated animals (IA)", "value": "greater than 50%"}, {"measurement": "depth ratio (lesion depth / total depth), medial tibia", "setting": "[4]; Gly-CNP-37 treated groups (IA) vs vehicle", "value": "improved"}, {"measurement": "Total Joint Score with Femur", "setting": "[4]; both doses IA", "value": "decreases total joint score at both doses, but not to a significant level"}, {"measurement": "medial tibial subchondral/epiphyseal trabecular bone thickening/sclerosis", "setting": "[4]; both doses IA vs vehicle, not significant", "value": "observable decrease"}, {"measurement": "growth plate thickness, medial minus lateral difference", "setting": "[4]; higher dose IA", "value": "significantly reduced"}, {"measurement": "collagen damage across the medial tibial plateau", "setting": "[4]; lower and higher doses IA vs untreated controls", "value": "fewer areas with severe, marked and moderate degeneration"}, {"measurement": "growth plate thickness, medial minus lateral difference", "setting": "[4]; lower dose IA", "value": "reduced thickness of the growth plate, but not to the same extent as the higher dose"}, {"measurement": "width of the cartilage affected by any degeneration", "setting": "[4]; treated groups (IA) vs vehicle", "value": "improved"}, {"measurement": "Total Joint Score without Femur", "setting": "[5]; 105 μg IA", "value": "significant reduction"}, {"measurement": "effects on histopathology lesions of medial meniscal tear-induced osteoarthritis", "setting": "[5]; IA, Pro-Gly-CNP-37 35.5 and 105 μg, Gly-CNP-37 105 μg", "value": "significant beneficial effects"}, {"measurement": "gait score Area Under the Curve (AUC)", "setting": "[6]; higher dose IA", "value": "gait score being lower for both treated populations as compared to the untreated controls"}, {"measurement": "mobility and gait (gait score)", "setting": "[6]; higher or lower dose IA, approximately day 15 to day 28", "value": "improvement in mobility and gait"}, {"measurement": "gait score Area Under the Curve (AUC)", "setting": "[6]; lower dose IA", "value": "decreased gait score to a greater extent than the higher CNP dose"}]}
